Experimental data reported in patent US20120020923A1, “Method of treating viral diseases with combinations of TPO receptor agonist and anti-viral agents” (priority 2006, published 2012).

Test system: subjects with chronic hepatitis C virus (HCV) associated thrombocytopenia
Assay: placebo controlled, double blind, dose-ranging study of Compound A before and with IFN and ribavirin
Type: in vivo, human
Conditions: for Median platelet count at Week 4: 4 weeks
Protocol: The safety, tolerability, efficacy and pharmacokinetics of repeat oral daily doses of 3′-{N′-[1-(3,4-Dimethylphenyl)-3-methyl-5-oxo-1,5-dihydropyrazol-4-ylidene]hydrazino}-2′-hydroxybiphenyl-3-carboxylic acid bis-(monoethanolamine);
(hereinafter Compound A) in subjects with chronic hepatitis C virus (HCV) associated thrombocytopenia, which precluded initiation of treatment with pegylated interferon (IFN) and ribavirin is assessed in this study.
HCV infected subjects with compensated cirrhosis and platelet counts between 20-70,000/ul were randomly allocated to 1 of 4 treatment groups (30, 50, 75 mg eltrombopag or placebo). During Part 1, Compound A was administered in tablet form once daily for 4 weeks. Subjects who achieved platelet counts of >70,000/ul at the end of Part 1 were eligible to enter Part 2, during which subjects initiated therapy with IFN and ribavirin and continued their randomized treatment for a maximum of 12 weeks. A follow-up visit was performed 4 weeks after last dose of study drug. The primary endpoint was defined as an increase in platelet count to 100,000/ul at Week 4.

[1] = range over the Compound A groups (30, 50, 75 mg)

Q: CC1=NN(c2ccc(C)c(C)c2)C(=O)C1=NNc1cccc(-c2cccc(C(=O)O)c2)c1O [Compound A, 3′-{N′-[1-(3,4-Dimethylphenyl)-3-methyl-5-oxo-1,5-dihydropyrazol-4-ylidene]hydrazino}-2′-hydroxybiphenyl-3-carboxylic acid bis-(monoethanolamine)] was tested. Which “Median platelet count at Week 4” value (30 mg once daily oral) did it give?
A: 136500 µL⁻¹

Q: What about the “Median platelet count at Week 4” value (50 mg once daily oral) of the same compound?
A: 213500 µL⁻¹

Q: What about the “Median platelet count at Week 4” value (75 mg once daily oral) of the same compound?
A: 209000 µL⁻¹

Q: What about the “platelet counts at Day 28” value (all treatment groups (30, 50, 75 mg)) of the same compound?
A: increased platelet counts

Q: And the “subjects completing 12 weeks of antiviral therapy” value [1]?
A: 36-65%

Q: What about the “subjects who completed 12 weeks of antiviral therapy” value [1] of the same compound?
A: 5-15 subjects
